Experimental data taken from ChEMBL document CHEMBL1148089, “Inhibitors of protein tyrosine kinase pp60v-src: sterol sulfates from the brittle star Ophiarachna incrassata” (J Nat Prod, 1994).

Assay: Inhibition of Rous sarcoma virus v-Src

SMILES: CC(C)CCC[C@@H](COS(=O)(=O)O)[C@H]1CC[C@H]2[C@@H]3CC[C@@H]4[C@H](O)[C@H](OS(=O)(=O)O)CC[C@]4(C)[C@H]3[C@@H](O)C[C@]12C
- IC50: 62 µM

SMILES: CC(CCC[C@@H](C)[C@H]1CC[C@H]2[C@@H]3CC[C@H]4C[C@H](OS(=O)(=O)O)[C@@H](OS(=O)(=O)O)C[C@]4(C)[C@H]3CC[C@]12C)COS(=O)(=O)O (some centres not stated)
- IC50: 11 µM

SMILES: CC(C)CCC[C@@H](COS(=O)(=O)O)[C@H]1CC[C@H]2[C@@H]3CC=C4C[C@H](OS(=O)(=O)O)CC[C@]4(C)[C@H]3CC[C@]12C
- IC50: 31 µM

SMILES: C[C@@]12CCC(=O)c3coc(c31)C(=O)c1cc3c(O)ccc(O)c3cc12 [HELENAQUINOL]
- IC50: 0.6 µM

SMILES: C[C@@]12CCC(=O)c3coc(c31)C(=O)c1cc3c(cc12)C(=O)C=CC3=O [HELENAQUINONE]
- IC50: 1.5 µM

SMILES: CC(C)CCC[C@@H](COS(=O)(=O)O)[C@H]1CC[C@H]2[C@@H]3CC=C4C[C@H](OS(=O)(=O)O)C[C@@H](O)[C@]4(C)[C@H]3CC[C@]12C
- IC50: 65 µM

SMILES: CC(CCC[C@@H](C)[C@H]1CC[C@H]2[C@@H]3CC=C4C[C@H](OS(=O)(=O)O)[C@@H](OS(=O)(=O)O)C[C@]4(C)[C@H]3CC[C@]12C)COS(=O)(=O)O (some centres not stated)
- IC50: 12 µM
